This is an account of results in patent publication US20180000768A1, “INTESTINAL FXR AGONISM ENHANCES GLP-1 SIGNALING TO RESTORE PANCREATIC BETA CELL FUNCTIONS” (Salk Institute for Biological Studies, priority 2015, published 2018).

Data set [1] has as its system Leptin-deficient ob/ob mice. Nature of the data set: metabolic phenotype and glucose homeostasis of treated ob/ob mice. In kind it is in vivo, mouse. To be noted: Fex 100 mg/kg/day, reduced treatment duration (2 weeks).
The subject of the next data set is NCI-H716 cells. Put plainly: Extracellular oxygen consumption rate assay (Seahorse XF96). It counts as cell-based, human. How it is done: Briefly, NCI-H716 cells were seeded in XF 96-well cell culture microplates (Seahorse Bioscience) at 6.0×10^4 cells per well in 150 μl of growth medium and then incubated at 37° C./5% CO2 for 24 hr. A Seahorse Bioscience instrument model XF96 was used to measure the rate of change of dissolved oxygen in the media surrounding the cells. All procedures followed manufacturer's instructions. […] Conversely, treatment with the FXR antagonist guggulsterone reduced basal respiratory rates and the FCCP-induced maximum respiration rate (FIGS. 9A and 9B). To examine the effects of FXR activity on the secretion of GLP-1, the metabolic changes induced in human L cells was measured after treatment with the FXR agonist, fexaramine and an FXR antagonist, guggulsterone. Treatment of L cells with fexaramine (1 μM for 24 hours) lead to an increase in the oxygen consumption rate (OCR), consistent with increased mitochondrial activity and consequently, an increased energetic state (FIG. 9A). The reverse effect was seen after treatment with the FXR antagonist, guggulsterone, with lower OCR after drug treatment.

The nature of data set [2]: in vitro permeability in Caco2 cells. To be noted: human; for Papp A→B at 2 h, 10 μM: Caco2 cells, assay conc. 10 μM.
Data set [3] deals with human intestinal epithelial Caco2 cells. Nature of the data set: in vitro permeability in Caco2 cells. The settings on record: Caco2 cells, 2 hour incubation.
Another data set deals with Human intestinal L cells. Nature of the data set: maintenance of ATP levels under bethanechol chloride. In kind it is cell-based. The settings on record: L cells incubated with bethanechol chloride; DMSO-treated L cells 67%. The procedure: To further examine how this increase in respiratory capacity affects L cell bioenergetics, the maintenance of ATP levels under energetic demanding conditions was evaluated. Human intestinal L cells treated with DMSO or Fex were incubated with the muscarinic receptor agonist bethanechol chloride and residual ATP levels determined. […] Fex-treated L cells were able to maintain 83% of the initial ATP abundance whereas DMSO-treated L cells were able to maintain 67% (FIG. 7D). Thus, Fex enhances overall mitochondrial bioenergetics in enteroendocrinal L cells.

A further data set relates to ob/ob mice. Put plainly: in vivo GLP-1 secretion after glucose load. To be noted: Fex-treated ob/ob mice, sitagliptin (25 mg/kg) prior to glucose challenge. On the set-up: species or system mouse. How it is done:
(§1) In vitro GLP-1 secretion assay was performed in human enteroendocrinal L cells (NCI-H716). For each secretion assay, cells were seeded at 1×10^5 cells/ml (1 ml/well) in a matrigel-coated 24-well plate. Prior to GLP-1 secretion assay, cells were pre-treated with DMSO, 1 μM Fex, or 1 μM Fex-D overnight. Cells were deprived in Krebs buffer (with 0.1% BSA) with dipeptidyl peptidase (DPP)-4 inhibitor ([…] sitagliptin). GLP-1 was measured with a commercial kit (EZGLP1T-36K, Millipore). For in vivo GLP-1 secretion, each animal was gavaged with 25 mg per kg of body weight sitagliptin 60-minutes before glucose load. Blood was collected from the tail vein at the indicated intervals, and transferred to serum collection tubes containing sitagliptin.
To investigate whether Fex enhances GLP-1 secretion in vivo, mice were challenged with a DPP4 inhibitor, sitagliptin (25 mg/kg) prior to a glucose challenge.

For data set [4], the system named is human enteroendocrinal L cells (NCI-H716). Nature of the data set: In vitro GLP-1 secretion assay. It counts as cell-based. To be noted: L cells pretreated with compound. The procedure: as §1
Data set [5] relates to Leptin-deficient ob/ob mice. Put plainly: metabolic phenotype and glucose homeostasis of treated ob/ob mice. In kind it is in vivo, mouse. The procedure:
Leptin-deficient ob/ob mice were purchased from Jackson laboratory (stock no. 000632). Each mouse consumed 100 mg per kg of body weight Fex (in corn oil) per day by oral gavage for 5 weeks. For in vivo analog study, each mouse consumed 50 mg per kg of body weight Fex-D (in corn oil) per day by oral gavage for 14 days. For GLP-1 receptor antagonist study, each mouse was daily treated with 100 μg per kg of body weight Exendin 9-39 amide (Abcam) via intraperitoneal injection for 2 weeks. For INT-777 study, each mouse was daily gavaged with 60 mg per kg of body weight INT-777 (in corn oil) for 5 weeks. For FGF15 study, each mouse was daily treated with 0.25 mg per kg of body weight FGF15 (in PBS with 0.1% BSA) via intravenous injection for 2 weeks. The sample sizes for all animal studies are indicated in each figure legend. All mice were housed in a specific pathogen-free facility with a 12-h light, 12-h dark cycle and given free access to food and water. All in vivo data were retrieved from 3 independent experimental animal cohorts. Core body temperature was measured with a clinical rectal thermometer (Thermalert model TH-5; Physitemp). For GTTs, 6-h fasted mice received 2 g of glucose per kg of body weight by oral gavage. Human insulin (Humilin, Eli Lilly) was used for insulin sensitivity test. Tail blood was drawn at indicated time intervals, and blood glucose level was measured with a One Touch Ultra glucometer (LifeScan). Body composition was measured with Echo MRI-100 body composition analyzer (Echo Medical Systems). All mice were randomly assigned to experimental groups for further analysis. No samples were excluded from the analysis.
Real-time metabolic analyses were conducted in a Comprehensive Lab Animal Monitoring System (Columbus Instruments). CO2 production, O2 consumption, RQ (relative rates of carbohydrate versus fat oxidation) and ambulatory counts were determined for 4 consecutive days and nights, with at least 24-h for adaptation before data recording.
To investigate the effect of Fex treatment in a diabetic mouse model, leptin-deficient obese mice (ob/ob) were subjected to daily treatment by oral gavage (100 mg/kg) for 5 weeks. […] Gene expression analysis confirmed the induction of UCP1 as well as a number of genes involved in β-oxidation, thermogenesis and oxidative phosphorylation (FIG. 1B-1D).

Where [6] appears, read: Fex 100 mg/kg daily oral gavage, 5 weeks.
[7] abbreviates: Fex 100 mg/kg daily oral gavage, 5 weeks, after 4 hour fast.

What is called Papp B→A is how fast a substance crosses the layer from the basolateral side. By Papp A→B is commonly meant how fast a substance crosses the layer from the apical side. A higher Papp A→B goes with fast passage. For the compound `COC(=O)/C=C/c1cccc(N(Cc2ccc(-c3ccc(N(C)C)cc3)cc2)C(=O)C2CCCCC2)c1` [Fexaramine], the fasting glucose levels result in data set [1] is reported as “little effect”. Besides, the “maximum respiration rate induced by FCCP” value in the data set on NCI-H716 cells (L cells, Fex 1 μM for 24 hr, vehicle-treated L cells 130%) worked out at 155%. Moreover, the “oxygen consumption rate (OCR)” value with NCI-H716 cells (human L cells, 24 hours, fexaramine 1 μM, guggulsterone 10 μM) is “increase”. In data set [2] (Caco-2), this compound yielded a Papp B→A at 2 h, 10 μM of 0.77 ×10⁻⁶ cm/s and a recovery at 2 h, 10 μM of 150%. Besides, the Papp A→B at 2 h, 10 μM in data set [2] (Caco-2, A-B Permeability Ranking) is less than 1 ×10⁻⁶ cm/s. In addition, the apical-to-basolateral permeability (Papp A→B) at 2 h, 10 μM in data set [2] (Caco-2, Mean Papp, A-B, 2 hour incubation) was found to be 0.597 ×10⁻⁶ cm/s. Also, the in vitro permeability entry in data set [3] is recorded as “low”. The “residual ATP, % of the initial ATP abundance maintained” value in the data set with Human intestinal L cells was found to be 83%. For the same compound, in the data set on ob/ob mice, the “glucose tolerance after DPP4 inhibitor pre-treatment” value was “improved” and the “plasma GLP-1 level 20 minutes after the glucose challenge” value was “increase”. The “GLP-1 secretion in response to a glucose challenge” value in data set [4] was “significant increase”. In data set [5] (setting [6]), the core temperature entry is “increase”, the glucose tolerance entry is “improved”, the “gonadal fat (gWAT) tissue weight” value was “modestly but significantly reduced” and the hepatic gluconeogenesis/lipogenesis entry is given as “remarkably suppressed”. Moreover, in data set [5] (setting [6]), the insulin sensitivity entry is on record as “improved” and the “proportion of M2 macrophages in gWAT” value was “increasing”. Moreover, in data set [5] (setting [7]), the glucose levels entry was “reduced” and the insulin levels entry is reported as “reduced”. The “respiratory exchange ratio in the dark period” value in data set [5] (Fex 100 mg/kg daily oral gavage, 5 weeks, metabolic cages) is recorded as “increased”. Also, the “time serum glucose levels remained low after cessation of treatment” value in data set [5] (monitored for 4 weeks after Fex treatment was stopped) is on record as 3 weeks.
